Read-outs that look alike come from different tables or passages of the source. Where no end group is shown, it is not given here.

In assay [1] the test system is Staphylococcus aureus (ATCC 25923). On the procedure:
(§1) The third step in the CAMP-discovery process is the evaluation of the antimicrobial effectiveness of the newly identified peptides. The eight synthetic peptides were tested against a panel of Gram-positive and Gram-negative bacteria. These bacteria include Bacillus cereus, Staphylococcus aureus, Escherichia coli, and Pseudomonas aeruginosa. […] When incubated with live metabolically-active cells, the non-fluorescent blue dye resazurin is converted to the highly fluorescent pink resorufin, as a result of reduction by the cells. While bacteria can reduce resazurin via multiple metabolic processes, the rate of conversion and the corresponding increase in fluorescence are directly proportional to the number of living cells in the sample [19–21, 25]. Thus, fluorometric detection of the rate of resazurin conversion to resorufin at 530ex/590em allows for quantification of bacterial survival following exposure to antibacterial compounds, such as CAMPs.
(§2) Escherichia coli (ATCC 25922), Bacillus cereus (ATCC 11778), Pseudomonas aeruginosa (ATCC 9027), and Staphylococcus aureus (ATCC 25923) used in these studies were purchased from the American Type Culture Collection (Manassas, VA). Bacteria were grown following ATCC recommended protocols for each strain and frozen aliquots were prepared in 20% glycerol and stored at -80°C for further use.
(§3) Frozen enumerated bacterial aliquots were thawed on ice and mixed. For each strain, bacteria are diluted to 2 × 10^6 CFU/mL in sterile 10 mM sodium phosphate (pH 7.4) and added in 50 µL aliquots to the wells of a 96-well black microtiter plate (Greiner Bio-One 655201) containing 50 µL volumes of serially diluted CAMP, dissolved in the same phosphate buffer. Control wells contain bacteria with no peptide. The microtiter plate was incubated for 3 hours at 30°C (B. cereus) or 37°C for other strains. After three hours, 100 µL of PBS solution with dissolved resazurin and MHB was added to each well. The amount of resazurin and MHB that was added is bacterial strain dependent, with the final resazurin (µM)/ MHB (wt/vol) concentrations being 100 µM/ 0.2% (wt/vol) for E. coli, 12.5 µM/ 0.05% (wt/vol) for B. cereus, 25 µM/ 2.2% (wt/vol) for P. aerugoinsa, and 50 µM/ 2.2% (wt/vol) for S. aureus. The metabolic conversion of resazurin to resorufin is bacterial strain dependent and requires concentrations optimized for each species to achieve a high-throughput assessment. Following addition of resazurin/MHB buffer, the plate was immediately placed in either a SpectraMax Gemini EM plate-reading fluorimeter (E. coli and B. cereus) or a TeCan Safire 2 fluorimeter (S. aureus and P. aeruginosa) for incubation overnight at either 30°C (B. cereus) or 37°C (other strains) while monitoring fluorescence for each well.
(§4) Fluorescence data was collected from each well during the monitoring period using equations compiled by microplate data software (SoftMax Pro 4.5 or Magellen 6). Onset time of half maximal fluorescence (T0.5) was used for quantifying bacterial concentrations. Standard curves were generated in preliminary experiments using serially diluted bacterial suspensions (~10^6 CFU/mL- 10^3 CFU/mL) without CAMPs. […] Correlating bacterial CFU values for wells containing peptide with control wells containing no CAMPs it is possible to determine bacterial survival for wells containing CAMPs.

Assay [2] deals with Pseudomonas aeruginosa (ATCC 9027). How it is done: as §1, §2, §3, §4
In assay [3] the test system is Escherichia coli (ATCC 25922). How it is done: as §1, §2, §3, §4
The test system of assay [4] is Bacillus cereus (ATCC 11778). How it is done: as §1, §2, §3, §4

In assay [1] (ATCC 25923, 3 h, pH 7.4), PPGASPRKKPRKQ [ASAP130LP] displayed an EC50 of 101 µM.

Consider KKTSMKIIPFTRL [FGG401–413], for which the concentration for a half-maximal effect (EC50) in assay [1] (ATCC 25923, 3 h, pH 7.4) was 31.8 µM; in assay [2] (ATCC 9027, 3 h, pH 7.4), 11.1 µM; in assay [3] (ATCC 25922, 3 h, pH 7.4), 0.245 µM; in assay [4] (ATCC 11778, 3 h, pH 7.4) it was 18.7 µM.

Consider KTRNWFSEHFKKVKEKLKDTFA [APOC1_67–88], for which the 50% effective concentration (EC50) was found to be 7.08 µM in assay [1] (ATCC 25923, 3 h, pH 7.4); 0.948 µM in assay [2] (ATCC 9027, 3 h, pH 7.4); 0.151 µM in assay [3] (ATCC 25922, 3 h, pH 7.4); 0.21 µM in assay [4] (ATCC 11778, 3 h, pH 7.4).

With FSTKTRNWFSEHFKKVKEKLKDTFA [APOC1_64–88], the 50% effective concentration (EC50) in assay [1] (ATCC 25923, 3 h, pH 7.4) stood at 9.66 µM; in assay [2] (ATCC 9027, 3 h, pH 7.4), 1.41 µM; in assay [3] (ATCC 25922, 3 h, pH 7.4) it was 0.192 µM; in assay [4] (ATCC 11778, 3 h, pH 7.4) it was 0.245 µM.

Consider YSLKKTSMKIIPFTRL [FGG398–413], for which the EC50 amounted to 2.84 µM in assay [1] (ATCC 25923, 3 h, pH 7.4); 7.02 µM in assay [2] (ATCC 9027, 3 h, pH 7.4); 0.332 µM in assay [3] (ATCC 25922, 3 h, pH 7.4); 9.35 µM in assay [4] (ATCC 11778, 3 h, pH 7.4).

`CC[C@H](C)[C@H](NC(=O)[C@H](CCCCN)NC(=O)[C@H](CCC(=O)O)NC(=O)[C@H](CCCCN)NC(=O)[C@H](CO)NC(=O)[C@H](CCCCN)NC(=O)[C@H](CCCNC(=N)N)NC(=O)[C@H](Cc1ccccc1)NC(=O)[C@H](Cc1ccccc1)NC(=O)[C@H](CC(=O)O)NC(=O)CNC(=O)[C@H](CC(C)C)NC(=O)[C@@H](N)CC(C)C)C(=O)NCC(=O)N[C@@H](CCCCN)C(=O)N[C@@H](CCC(=O)O)C(=O)N[C@@H](Cc1ccccc1)C(=O)N[C@@H](CCCCN)C(=O)N[C@@H](CCCNC(=N)N)C(=O)N[C@H](C(=O)N[C@H](C(=O)N[C@@H](CCC(N)=O)C(=O)N[C@@H](CCCNC(=N)N)C(=O)N[C@H](C(=O)N[C@@H](CCCCN)C(=O)N[C@@H](CC(=O)O)C(=O)N[C@@H](Cc1ccccc1)C(=O)N[C@@H](CC(C)C)C(=O)N[C@@H](CCCNC(=N)N)C(=O)N[C@@H](CC(N)=O)C(=O)N[C@@H](CC(C)C)C(=O)N[C@H](C(=O)N1CCC[C@H]1C(=O)N[C@@H](CCCNC(=N)N)C(=O)N[C@H](C(=O)N[C@@H](CCC(=O)O)C(=O)N[C@@H](CO)C(=O)O)[C@@H](C)O)C(C)C)[C@@H](C)CC)C(C)C)[C@@H](C)CC` [LL-37, reference compound]: the EC50 in assay [1] (read-out: S. aureus EC50, S. aureus ATCC 25923, 2 × 10^6 CFU/mL stock mixed 1:1 with peptide in 10 mM sodium phosphate pH 7.4, 3 h at 37°C, resazurin fluorescence read-out (T0.5), triplicate, variable-slope sigmoidal fit) was determined as 0.552 µM; in assay [2] (read-out: P. aeruginosa EC50, P. aeruginosa ATCC 9027, 2 × 10^6 CFU/mL stock mixed 1:1 with peptide in 10 mM sodium phosphate pH 7.4, 3 h at 37°C, resazurin fluorescence read-out (T0.5), triplicate, variable-slope sigmoidal fit), 0.525 µM; in assay [3] (read-out: E. coli EC50, E. coli ATCC 25922, 2 × 10^6 CFU/mL stock mixed 1:1 with peptide in 10 mM sodium phosphate pH 7.4, 3 h at 37°C, resazurin fluorescence read-out (T0.5), triplicate, variable-slope sigmoidal fit) it was 0.00821 µM; in assay [4] (read-out: B. cereus EC50, B. cereus ATCC 11778, 2 × 10^6 CFU/mL stock mixed 1:1 with peptide in 10 mM sodium phosphate pH 7.4, 3 h at 30°C, resazurin fluorescence read-out (T0.5), triplicate, variable-slope sigmoidal fit) it was 0.0287 µM.

Take VERIPLVRFKSIKKQLHERGDL [NOTS17–38]: the EC50 in assay [1] (ATCC 25923, 3 h, pH 7.4) was determined as 198 µM.

(Values after paper PMC4324634, “Bioprospecting the American Alligator (Alligator mississippiensis) Host Defense Peptidome” (PLoS ONE, 2015).)
